The values that follow come from PubChem BioAssay (NCI).

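Test compounds were applied to cells in 96-well plates for 48 hours at 5 doses. TGI denotes the concentration required for complete inhibition of growth.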 Where a SMILES comes first, the peptide text is derived from it. The star is where a group is joined. Cbz = O=C(OCc1ccccc1)*; NHNH2 = NN*

What all share (experiment): NCI tumour cell line growth inhibition, 48 h
Assay [1] concerns A498 renal.
Assay [2] has as its system SNB-19 CNS.
Assay [3] concerns 786-0 renal.
Assay [4] relates to SK-MEL-5 melanoma.
The subject of assay [5] is NCI/ADR-RES ovarian.
The subject of assay [6] is MCF7 breast.
For assay [7], the system named is DU-145 prostate.
The subject of assay [8] is SF-268 CNS.
In assay [9] the test system is MDA-N.
In assay [10] the test system is MDA-MB-231 breast.
Assay [11] deals with SR leukemia.

For `C=CCOc1ccccc1C1(O)c2ccccc2C2=NCCCN21` (stereo unspecified), the TGI in [1] is above 100 µM; in assay [2], 79.5 µM; in [3], above 100 µM; in assay [4], above 100 µM; in [5] it was above 100 µM; in [6], above 100 µM. Moreover, the TGI in assay [7], in assay [8], in assay [9], in assay [10] and in [11] was above 100 µM in each case.
For `O=C(Nc1nnc(-c2c(Cl)c(Cl)c(Cl)c(Cl)c2-c2nc3cc(C(=O)c4ccccc4)ccc3[nH]2)o1)c1ccc(Cl)cc1`, the TGI was 43.4 µM in assay [1]; above 100 µM in assay [2]; above 100 µM in assay [3]; 39.9 µM in assay [4]; above 100 µM in assay [5]; above 100 µM in [6]. For the same molecule, the TGI in [7] was above 100 µM; in assay [9], 54.2 µM; in [10], above 100 µM; in assay [11] it was above 100 µM.
`COC(=O)/C=C(\S/C=C(/c1ccccc1)N1CCn2c(C(=O)c3ccccc3)c(C(=O)OC)c(C(=O)OC)c21)C(=O)OC`: the TGI was above 10 µM in assay [1]; above 10 µM in assay [2]; 3.19 µM in assay [3]; above 10 µM in [4]; above 10 µM in assay [5]; 4.33 µM in assay [6]. Besides, the TGI in assay [9] was above 10 µM; in [10], 5.27 µM; in assay [11], above 10 µM.
With `COC(=O)[C@@H]1CC(C(CN)c2cn(C(=O)OC(C)(C)C)c3ccccc23)C(=O)N1C(=O)OC(C)(C)C` (stereo partly specified), the TGI is 37.3 µM in assay [1]; above 100 µM in assay [2]; above 100 µM in assay [3]; 31.6 µM in assay [4]; 55.8 µM in [5]; 58.5 µM in [6]. In addition, the TGI is above 100 µM in [7]; above 100 µM in assay [8]; 69.6 µM in assay [9]; 58.6 µM in assay [10]; 43.3 µM in assay [11].
For `CCCC1(CCC)c2cc(/C=N\O)ccc2-c2ccc(-c3ccc(C(C)(C)C)cc3)cc21`, the TGI in assay [2], in [3], in assay [4], in assay [5], in assay [6] and in assay [7] was above 100 µM throughout. The TGI in assay [8] was above 100 µM; in [9] it was above 100 µM; in [10], 39.7 µM; in [11], 73.1 µM.
Turning to `CC/C=C/C[C@H](O)[C@H]1C[C@H]2O[C@H](CC(=O)OC)C[C@H]2O1`, the TGI in [1], in [2], in [3], in [4], in assay [5] and in assay [6] was above 100 µM in each case. Also, the TGI in [7], in [8], in assay [9], in [10] and in assay [11] was above 100 µM throughout.
Consider `CCn1c(=O)c2nc(SC)sc2n(-c2ccccc2)c1=O`, for which the TGI in [2], in assay [3], in assay [4], in assay [5], in assay [6] and in assay [7] was above 100 µM in each case. In addition, the TGI in assay [8], in [9], in assay [10] and in assay [11] was above 100 µM each time.
With `Cc1ccc(S(=O)(=O)N/N=C2/CC3CCC4CC2CC34)cc1` (stereo unspecified), the TGI in assay [1], in assay [2], in assay [3], in assay [4], in assay [5] and in assay [6] was above 100 µM each time. Moreover, the TGI in assay [7], in assay [8], in assay [9], in [10] and in [11] was above 100 µM each time.
`CSCCCNC(=O)c1csc(-c2csc(CCNC(=O)CNC(=O)CNC(=O)OC(C)(C)C)n2)n1`: the TGI in [1], in assay [2], in assay [3], in assay [4], in assay [5] and in [6] was above 100 µM in each case. In addition, the TGI in assay [7], in assay [8], in assay [9], in assay [10] and in [11] was above 100 µM in each case.
Consider `COc1cc(NC=C2C(=O)OC(C)(C)OC2=O)c(OC)c(C)c1OC`, for which the TGI in [1], in assay [2], in assay [3], in [4], in assay [5] and in [6] was above 100 µM throughout. Also, the TGI in [7], in [8], in [9], in assay [10] and in assay [11] was above 100 µM throughout.
For `O=C1CCCCC/C1=C\c1ccccc1`, the TGI in assay [1], in assay [2], in assay [3], in assay [4], in assay [7] and in assay [8] was above 100 µM in each case. For the same molecule, the TGI in assay [9], in [10] and in [11] was above 100 µM each time.
Regarding `CC(C)/C(=N\[N+](C)(C)C)c1ccccc1`, the TGI in assay [1], in assay [2], in [3], in [4], in assay [5] and in assay [6] was above 100 µM each time. Moreover, the TGI in assay [7], in [8], in assay [9], in assay [10] and in [11] was above 100 µM throughout.
Take `CC(=O)C(=[N+]=[N-])C(=O)N(C)CCC#N`: the TGI in assay [1], in assay [2], in [3], in assay [6], in assay [7] and in assay [8] was above 10 µM each time. The TGI in assay [9], in [10] and in assay [11] was above 10 µM throughout.
Take `COc1ccccc1NCc1cccc2c(=O)c3ccc(Cl)cc3oc12`: the TGI in assay [1], in [2], in assay [3], in assay [4], in assay [5] and in [6] was above 100 µM in each case. For the same molecule, the TGI in [9], in [10] and in assay [11] was above 100 µM in each case.
With `NC(=O)c1c(NC=O)ncn1C1OCC(O)C(O)C1O` (stereo unspecified), the TGI in [2], in assay [3], in [4], in [5], in assay [7] and in [8] was above 100 µM in each case. The TGI in [9], in assay [10] and in assay [11] was above 100 µM throughout.
Regarding `O=C1CSC2=NC3=C(CSC/C3=C\c3ccccc3)C(c3ccccc3)N12` (stereo unspecified), the TGI in assay [3], in [4], in [5], in assay [6], in assay [7] and in [8] was above 100 µM in each case. Further, the TGI in [9], in assay [10] and in [11] was above 100 µM throughout.
Turning to `CO[C@@H]1C[C@H](OC(N)=O)[C@@H]2C=C[C@@H]3/C=C(C)/C=C/[C@@H](C)[C@H](/C(C)=C/[C@@H](C)NC(C)=O)OC(=O)/C=C/C=C(C)\C=C\[C@]3(C)[C@@H]2C1`, the TGI in assay [1] came to 0.0867 µM; in assay [2], 10.2 µM; in assay [3] it was 2.74 µM; in [4], 0.604 µM; in assay [5] it was 2.69 µM; in [6], 17 µM. Besides, the TGI in assay [7] is 2.43 µM; in assay [8] it was 1.4 µM; in assay [9], 2.12 µM; in assay [11], 5.11 µM.
On to `Cc1cccc(C)c1Nc1nc(C)c(C(=O)CC(=O)C(=O)Nc2c(C(C)C)cccc2C(C)C)s1`, for which the TGI in [2], in [3], in assay [4], in [5], in assay [6] and in [7] was above 100 µM each time. Besides, the TGI in assay [8], in assay [9], in [10] and in assay [11] was above 100 µM throughout.
For the molecule `S=C(N1CCN(c2cccc(Cl)c2)CC1)N1CCN(c2cccc(Cl)c2)CC1`, the TGI in [2], in assay [3], in assay [4], in assay [5], in assay [6] and in assay [7] was above 100 µM each time. Moreover, the TGI is above 100 µM in [8], above 100 µM in assay [9], 58.8 µM in assay [10] and 32.4 µM in assay [11].
In the case of `COc1cccc2cc(C(C)=O)c(=O)oc12`, the TGI in assay [1], in assay [3], in assay [4], in [5], in assay [6] and in assay [7] was above 100 µM in each case. The TGI in assay [8], in assay [9], in assay [10] and in assay [11] was above 100 µM throughout.
Take `CCCN1C(=O)/C(=C\c2ccc(OC)c(OC)c2)SC1=Nc1ccccc1`: the TGI in [1], in assay [2], in [3], in [4], in assay [5] and in [6] was above 100 µM each time. The TGI in assay [8], in [9], in assay [10] and in assay [11] was above 100 µM throughout.
`CC1(C)OC[C@@H](O)[C@H](Br)CO1`: the TGI in assay [1], in assay [2], in assay [3], in assay [6], in assay [7] and in assay [8] was above 100 µM each time. In addition, the TGI in [9], in [10] and in assay [11] was above 100 µM throughout.
In the case of `COc1nc2c(c(=O)n1C)N=C(c1ccc(Cl)cc1)CC(c1ccccc1)N2` (stereo unspecified), the TGI in assay [1] is above 100 µM; in [2], above 100 µM; in assay [3] it was above 100 µM; in [4], 38.2 µM; in assay [5], above 100 µM; in assay [6] it was 28.8 µM. The TGI in assay [7] was above 100 µM; in [9], 37.8 µM; in assay [10] it was 53.7 µM; in assay [11], above 100 µM.
In the case of `CCOC(=O)CCC(NC(=O)OCc1ccccc1)C(=O)NC(CCC(=O)OCC)C(=O)NN` (stereo unspecified) (Cbz-Glu(OEt)-Glu(OEt)-NHNH2; configuration not given here), the TGI in assay [1], in assay [2], in assay [3], in assay [4], in assay [6] and in [9] was above 100 µM throughout. In addition, the TGI in assay [10] and in assay [11] was above 100 µM throughout.
`COc1ccc2nc3n(c2c1)C(=O)c1ccccc1-3`: the TGI in assay [2], in assay [3], in [4], in [5], in assay [6] and in [7] was above 100 µM each time. Besides, the TGI in assay [8], in assay [9] and in assay [11] was above 100 µM throughout.
Regarding `C(=Nc1ccc(-c2nc3ccccc3[nH]2)cc1)c1ccco1`, the TGI in [1], in assay [3], in assay [4], in assay [5], in [6] and in assay [7] was above 100 µM each time. The TGI in [8], in [9] and in assay [11] was above 100 µM each time.
